Measurements reported in the C3SDB collision cross section collection.
Several values for one entry are separate records, joined by “and”; a condition that tells them apart may be missing. Equal entries are not always repeated.

Conditions: instrument: TW, calibrated with polyalanine and drug standards

Structure (SMILES)	collision cross section (N2) ([M+H]+)	also measured
CCCC1O[C@@H]2C[C@H]3[C@@H]4CCC5=CC(=O)C=C[C@]5(C)[C@H]4[C@@H](O)C[C@]3(C)[C@]2(C(=O)CO)O1 (stereo not given in full) [BUDESONIDE]	204.6 Å²	
CC1=CC2C(C(C)C)CCC(C)(O)C2CC1 (stereo not given) [CADIN-4-EN-10-OL]	145.9 Å²	
CC(=O)OCC1(O)CC23CCC4c5ccoc5CCC4(C)C2CCC1C3 (stereo not given) [CAFESTOL ACETATE]	169.3 Å²	
NC(N)=NOCC[C@H](N)C(=O)O [CANAVANINE]	133.3 Å²	
CCCCCCCCCCCCCCC(C(=O)O)C(O)(CC(=O)OC)C(=O)O (stereo not given) [CAPERATIC ACID]		collision cross section (N2) ([M+Na]+): 211 Å²
NC(=O)N1c2ccccc2C=Cc2ccccc21 [CARBAMAZEPINE]	149 Å²	
C[C@@](Cc1ccc(O)c(O)c1)(NN)C(=O)O [CARBIDOPA]	142.4 Å²	
C=CC1=C(C(=O)O)N2C(=O)[C@@H](NC(=O)/C(=N\O)c3csc(N)n3)[C@H]2SC1 [CEFDINIR]	190.5 Å²	
CO/N=C(\C(=O)N[C@@H]1C(=O)N2C(C(=O)OCOC(=O)C(C)(C)C)=C(/C=C\c3scnc3C)CS[C@H]12)c1csc(N)n1 [CEFDITORIN PIVOXIL]	238 Å²	
COCC1=C(C(=O)OC(C)OC(=O)OC(C)C)N2C(=O)[C@@H](NC(=O)/C(=N\OC)c3csc(N)n3)[C@H]2SC1 (stereo not given in full) [CEFPODOXIME PROXETIL]	235.4 Å² and 228.3 Å²	
OC[C@@H](O)[C@H]1O[C@@H]2O[C@H](C(Cl)(Cl)Cl)O[C@@H]2[C@H]1O [CHLORALOSE]	163.2 Å²	
O=C(N[C@H](CO)[C@H](O)c1ccc([N+](=O)[O-])cc1)C(Cl)Cl [CHLORAMPHENICOL]		collision cross section (N2) ([M+H-H2O]+): 163.9 Å²
NS(=O)(=O)c1cc2c(cc1Cl)NC=NS2(=O)=O [CHLOROTHIAZIDE]	161 Å²	
Oc1c(Cl)cc(Cl)c2cccnc12 [CHLOROXINE]	134.3 Å²	
CCOP(=S)(OCC)Oc1nc(Cl)c(Cl)cc1Cl [CHLORPYRIFOS]	201.7 Å²	
NS(=O)(=O)c1cc(C2(O)NC(=O)c3ccccc32)ccc1Cl (stereo not given) [CHLORTHALIDONE]		collision cross section (N2) ([M+H-H2O]+): 166.7 Å²
CC(C)CCC[C@@H](C)[C@H]1CC[C@H]2[C@@H]3C=CC4=CC(=O)CC[C@]4(C)[C@H]3CC[C@]12C [CHOLESTA-4,6-DIEN-3-ONE]	208.3 Å²	
C[C@H](CCC(=O)O)[C@H]1CC[C@H]2[C@@H]3[C@H](O)C[C@@H]4C[C@H](O)CC[C@]4(C)[C@H]3C[C@H](O)[C@]12C [CHOLIC ACID]		collision cross section (N2) ([M+Na]+): 195.6 Å²

Structure (SMILES)	collision cross section (N2) ([M+H]+)	also measured
CC(C)=CC1C(C(=O)O)C1(C)C (stereo not given) [CHRYSANTHEMIC ACID]	130 Å²	
O=C(O)c1cc(-c2ccccc2)nc2ccccc12 [CINCHOPHEN]	154.3 Å²	
CCn1nc(C(=O)O)c(=O)c2cc3c(cc21)OCO3 [CINOXACIN]	148.5 Å²	
COc1cc(OC)c2ccc(=O)oc2c1 [CITROPTEN]	138.3 Å²	
Oc1c(I)cc(Cl)c2cccnc12 [CLIOQUINOL]	138.2 Å²	
Cc1[nH]c(C)c(Cl)c(=O)c1Cl [CLOPIDOL]	131.2 Å²	
CN1CCN(C2=c3ccccc3=Nc3ccc(Cl)cc3N2)CC1 [CLOZAPINE]	177.5 Å²	
COc1cc2c(c(OC)c1OC)-c1ccc(OC)c(=O)cc1[C@@H](NC(C)=O)CC2 [COLCHICINE]	194.5 Å²	
CC(=O)OCC(=O)[C@@]1(O)CC[C@H]2[C@@H]3CCC4=CC(=O)CC[C@]4(C)[C@H]3C(=O)C[C@@]21C [CORTISONE ACETATE]	196.5 Å²	
O=c1ccc2ccccc2o1 [COUMARIN]	122.2 Å²	
C/C=C/C(=O)N(CC)c1ccccc1C [CROTAMITON]	145.1 Å²	
CC(C)(O)CC[C@@H](O)[C@](C)(O)[C@H]1CC[C@@]2(O)C3=CC(=O)[C@@H]4C[C@@H](O)[C@@H](O)C[C@]4(C)[C@H]3CC[C@]12C [CRUSTECDYSONE]	221.3 Å²	
COc1cc(/C=C/C(=O)CC(=O)/C=C/c2ccc(O)c(OC)c2)ccc1O [CURCUMIN]	198.5 Å²	
CC1CC(OC(=O)C(O)c2ccccc2)CC(C)(C)C1 (stereo not given) [CYCLANDELATE]		collision cross section (N2) ([M+Na]+): 186.2 Å²
CN1CCN(C(c2ccccc2)c2ccccc2)CC1 [CYCLIZINE]	164.8 Å²	
NC1=NCCN1CC(=O)O [CYCLOCREATINE]	124.3 Å²	
CC(=O)O[C@]1(C(C)=O)CC[C@H]2[C@@H]3C=C(Cl)C4=CC(=O)[C@@H]5C[C@@H]5[C@]4(C)[C@H]3CC[C@@]21C [CYPROTERONE ACETATE]	199.4 Å²	
